“And” between values parts separate entries of the source, which are not always exact repeats. Identical values can stand only once.

Experiment [1] concerns the target T1, PfKMO (Pseudomonas fluorescens, UniProt Q84HF5, C252S/C461S).
T1 construct: made in house; host or cells: E. coli BL21 (DE3)
The experiment can be described thus: Stopped-flow reduction of flavin cofactor by NADPH. The settings on record: for Reduction rate of flavin cofactor: PfKMO with saturating ligand, 2 mM NADPH, 25 °C, anaerobic; for Stimulation of KMO reduction by NADPH: rapid mixing stopped-flow assays. The class given is biochemical. How it is done:
The reduction rate of the flavin cofactor by NADPH was measured using a stopped-flow spectrophotometer (Applied Photophysics Ltd), which was housed in an anaerobic glovebox (Belle Technology). […] The reduction of the flavin was monitored by the decrease in the absorbance of the flavin at 450 nm and transients were fitted to either double or triple exponentials.
Supplementary Figure 13. Reduction of flavin cofactor by NADPH in the presence and absence of ligands. Anaerobic mixtures of 10 µM PfKMO with or without ligand were mixed against anaerobic 2 mM NADPH on a stopped-flow spectrophotometer at 25℃. a, 10 µM PfKMO mixed with 2 mM NADPH; b, 10 µM

Experiment [2] addresses T1, PfKMO. In words: biochemical. As to conditions: for Mechanism of inhibition with respect to L-KYN / Mechanism of inhibition with respect to NADPH: PfKMO. How it is done: saturating concentrations of the L-KYN and NADPH substrates. Data are plotted […]
(§1) consumption of NADPH at 340 nm upon addition of enzyme via a Cary 50 UV-Vis spectrophotometer (Agilent Technologies). Rates were determined from linear regression fits to the initial linear portion of the curves. All measurements were performed in triplicate. The IC50 values for inhibitors were obtained by plotting the percentage inhibition versus the inhibitor concentration and fitting to the Morrison equation16 (equation 1) using Origin 9.0 Software (OriginLab, Northampton, MA).
E + I + K!"" − E + I + K!"" ! − 4[E][I] where v0 is the enzyme activity without inhibitor, vi is the enzyme activity with ligand concentration [I], [E] is the enzyme concentration, [I] is the inhibitor concentration, K!"" is the apparent inhibition constant and IC = K!"" + [!] . If K!"" ≫ [!], IC ≈ […]
where Ki is the inhibition constant, [S] is the substrate concentration used in the assay and Km is the Michaelis-Menten constant17. […]
between Ki and Ki apparent values, as the conditions for measuring IC50 are different, Ki values can be used to compare with other reported KMO inhibitors.
Steady-state kinetic parameters for PfKMO were calculated by measuring initial rates […]
the observed rate of turnover (v) versus the varied substrate concentration were fitted to equation 2 using Origin 9.0 Software (OriginLab, Northampton, MA).
A B + K!! B + K!! A + K!!K!! where v is the initial rate of activity, Vmax is the maximum velocitie of the reaction, [A] and [B] are the substrate concentration, K!! and K!! are the Michaelis-Menten constant for different substrate and K!! is the inhibition (binding) constant of substrate A to the free enzyme while forming transitory complexes.18
Product inhibition studies were carried out by measuring reaction rates at varying […]
one substrate and varying concentrations of the other substrate. Inhibition studies with target compounds were carried out by measuring reaction rates at varying inhibitor concentrations at saturating concentrations of one substrate and varying concentrations of the other substrate. […]
were used to distinguish between different types of inhibition. The data were fitted to a straight line defined by the Lineweaver-Burke equation (equation 4), with the y intercept providing 1/Vmax and the x intercept giving -1/Km. […]

The target in the next experiment is T2, Homo sapiens KMO (HsKMO) (Homo sapiens, UniProt O15229).
T2 construct: GST; made in house
T2 sequence (O15229 whole entry): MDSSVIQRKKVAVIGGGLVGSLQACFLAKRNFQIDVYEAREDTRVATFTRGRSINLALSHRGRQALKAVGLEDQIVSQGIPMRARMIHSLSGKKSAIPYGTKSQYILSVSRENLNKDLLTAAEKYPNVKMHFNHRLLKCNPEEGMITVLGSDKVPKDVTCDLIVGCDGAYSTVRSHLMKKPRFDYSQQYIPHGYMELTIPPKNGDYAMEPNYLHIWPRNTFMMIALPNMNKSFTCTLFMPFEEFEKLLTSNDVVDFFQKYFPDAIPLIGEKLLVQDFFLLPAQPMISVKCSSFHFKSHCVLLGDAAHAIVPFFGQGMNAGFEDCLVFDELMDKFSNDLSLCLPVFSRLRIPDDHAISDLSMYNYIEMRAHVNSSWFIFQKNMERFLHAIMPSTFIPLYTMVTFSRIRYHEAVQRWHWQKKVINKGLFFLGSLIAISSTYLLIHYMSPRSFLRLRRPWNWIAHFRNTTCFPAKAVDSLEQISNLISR
The experiment can be described thus: KMO inhibition assay, NADPH oxidation at 340 nm (HsKMO). The class given is biochemical.
Source text: (§2) A combination of ligand- and structural-based virtual screening approaches (see supporting information for details) was used to identify an initial library of >1000 compounds that may be suitable as potential KMO inhibitors. These compounds were screened for inhibition of Pseudomonas fluorescens KMO (PfKMO) and Homo sapiens KMO (HsKMO) using high-throughput assays by monitoring the time-dependent oxidation of NADPH at 340 nm[23].
(§3) Small-molecule compounds were supplied by Biofocus (Charles River Laboratories International Inc., MA, USA), which were identified in silico as potential inhibitors (further details are described in the Supplementary Methods). Initial inhibition assays were performed against Pseudomonas fluorescens KMO (PfKMO) and Homo sapiens KMO (HsKMO) by monitoring the time-dependent absorbance change of NADPH at 340 nm. Purified KMO protein (200 nM) was incubated in 100 µL reaction buffer (20 mM potassium phosphate pH 8.0, 7 mM 2-mercaptoethanol) containing 100 μM NADPH, 100 μM L-Kyn and 20 μM potential inhibitors in 96-well plates. […] The inhibitors identified in the initial screens were validated and re-assayed individually in a 1 cm path-length quartz micro cuvette. […] Suppliers for target inhibitor compounds are listed in Supplementary Table 11.
Supplementary Figure 1. Examples of inhibition data used to generate IC50 values for selected KMO inhibitors.
NADPH (100µM) were added into reaction buffer (HsKMO: 20mM potassium phosphate pH 8.0, 7 mM 2-mercaptoethanol; PfKMO: 20 mM HEPES, 10mM sodium acetate, pH 7.5, 2mM DTT). The reaction was initiated by the addition of KMO enzyme (HsKMO: 0.5µM; PfKMO: 0.1 µM). KMO activity was measured in the presence of a range of inhibitor concentrations. […]
(§4) 3.5 Steady-state enzymatic assays.
(§5) Initial screening assays and determination of IC50 values for each potential inhibitor compound were carried out using either 0.1 µM PfKMO or 0.5 µM HsKMO at fixed […]
(§6) (HsKMO: 20 mM potassium phosphate pH 8.0, 7 mM 2-mercaptoethanol; PfKMO:
(§7) 20 mM HEPES, 10 mM sodium acetate, pH 7.5, 2 mM DTT). KMO activity was measured in the presence of a range of inhibitor concentrations by monitoring the […]
as §1
E + I + K!"" − E + I + K!"" ! − 4[E][I] where v0 is the enzyme activity without inhibitor, vi is the enzyme activity with ligand

Experiment [3] deals with T3, Pseudomonas fluorescens KMO (PfKMO) (Pseudomonas fluorescens, UniProt Q84HF5, C252S/C461S).
T3 construct: made in house; host or cells: E. coli BL21 (DE3)
T3 sequence (Q84HF5 whole entry C252S/C461S): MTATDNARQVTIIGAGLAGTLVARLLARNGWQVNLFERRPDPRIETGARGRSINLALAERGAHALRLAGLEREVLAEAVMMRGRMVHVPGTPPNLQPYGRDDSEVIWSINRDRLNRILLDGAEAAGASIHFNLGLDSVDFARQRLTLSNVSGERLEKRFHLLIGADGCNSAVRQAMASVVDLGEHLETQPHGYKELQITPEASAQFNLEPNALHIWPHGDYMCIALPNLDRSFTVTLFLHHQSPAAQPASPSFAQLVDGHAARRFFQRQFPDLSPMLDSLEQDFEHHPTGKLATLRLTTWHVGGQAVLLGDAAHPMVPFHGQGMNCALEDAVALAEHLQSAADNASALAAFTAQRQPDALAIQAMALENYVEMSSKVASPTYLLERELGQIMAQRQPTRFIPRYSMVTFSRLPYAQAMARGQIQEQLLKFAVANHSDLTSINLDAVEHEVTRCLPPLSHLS
The experiment can be described thus: biochemical.
Source text: as §2, §3
Supplementary Figure 1. Examples of inhibition data used to generate IC50 values for selected KMO inhibitors. Fixed concentration of L -KYN (200 µM) and NADPH (100µM) were added into reaction buffer (HsKMO: 20mM potassium phosphate pH 8.0, 7 mM 2-mercaptoethanol; PfKMO: 20 mM HEPES, 10mM sodium acetate, pH 7.5, 2mM DTT). The reaction was initiated by the addition of KMO enzyme (HsKMO: 0.5µM; PfKMO: 0.1 µM). KMO activity was measured in the presence of a range of inhibitor concentrations. […]
as §4, §5, §6, §7
consumption of NADPH at 340 nm upon addition of enzyme via a Cary 50 UV-Vis spectrophotometer (Agilent Technologies). Rates were determined from linear regression fits to the initial linear portion of the curves. All measurements were performed in triplicate. The IC50 values for inhibitors were obtained by plotting the percentage inhibition versus the inhibitor concentration and fitting to the Morrison equation16 (equation 1) using Origin 9.0 Software (OriginLab, Northampton, MA). […]

In experiment [4] the test system is KMO activity in the striatum. In words: De novo 3-HK synthesis after intrastriatal [5-3H]-kynurenine. The class given is in vivo, Sprague–Dawley rats.

T1 sequence (Q84HF5 whole entry C252S/C461S): as above

Consider `O=C(O)c1ccc(-c2cccc(Cl)c2Cl)o1` [compound 9, 5-(2,3-dichlorophenyl) furan-2-carboxylic acid], for which, at PfKMO [1], the “Reduction rate of flavin cofactor” value was 0.03 ± 0.001 s⁻¹ and the “Stimulation of KMO reduction by NADPH” value is listed as “do not stimulate”. Further, on PfKMO [2], the Ki turned out to be 0.15 ± 0.01 µM, the “Mechanism of inhibition with respect to L-KYN” value was “competitive inhibitor” and the “Mechanism of inhibition with respect to NADPH” value is reported as “competitive inhibitor”. Besides, at Homo sapiens KMO (HsKMO), the IC50 is 39.6 µM. The IC50 in experiment [3] was found to be 4.3 ± 0.2 µM.

`O=C(O)c1ccc(-c2ccc(Cl)c(Cl)c2)o1` [compound 13, 5-(3,4-dichlorophenyl) furan-2-carboxylic acid]: on PfKMO [1], the “Reduction rate of flavin cofactor” value amounted to 0.06 ± 0.002 s⁻¹ and the “Stimulation of KMO reduction by NADPH” value was “do not stimulate”. Further, on PfKMO [2], the affinity, expressed as Ki, was 0.02 ± 0.001 µM; the “Mechanism of inhibition with respect to L-KYN” value was “competitive inhibitor”; the “Mechanism of inhibition with respect to NADPH” value is recorded as “mixed type inhibitors”. Further, at Homo sapiens KMO (HsKMO), the 50% inhibitory concentration (IC50) is 63.1 µM. Further, the IC50 in experiment [3] amounted to 0.4 ± 0.02 µM.

Take `Cn1c(C(=O)N[C@@H](C(=O)O)c2ccccc2)cc2cc(Cl)ccc21` [compound 4, (R)-2-(5-chloro-1-methyl-1H-indole-2-carboxamido)-2-phenylacetic acid]: at PfKMO [1], the “Reduction rate of flavin cofactor” value is 0.03 ± 0.005 s⁻¹ and the “Stimulation of KMO reduction by NADPH” value is “do not stimulate”. Moreover, at PfKMO [2], the affinity corresponds to a Ki of 3 ± 0.24 µM, the “Mechanism of inhibition with respect to L-KYN” value was “competitive inhibitor” and the “Mechanism of inhibition with respect to NADPH” value is listed as “mixed type inhibitors”. In addition, the IC50 on Homo sapiens KMO (HsKMO) was 6.1 µM. Further, the IC50 in experiment [3] was 59.8 ± 7.14 µM.

Regarding `COc1ccc(S(=O)(=O)Nc2nc(-c3cccc([N+](=O)[O-])c3)cs2)cc1OC` [Ro 61-8048], the “Reduction of [3H]-3-HK” value in experiment [4] (rat striatum, 50 mg/kg i.v., 1 h) is “no reduction”. In addition, the “Percentage of [5-3H]-KYN that is metabolized into [3H]-3-HK” value in experiment [4] (striatum of awake rats, 1 h after 50 mg/kg i.v., single rats) is 2.76% and 5.1% and 4.48% and 5.65% and 2.31% and 2.1%.

These data come from paper PMC6656724 (Communications Biology, 2019).
